Results reported in US5466717A, “Halogenated 4'-methoxyacetophenones as microbicides and preservatives” (Buckman Laboratories Int'l, Inc., priority 1993, dated 1995).
Where two headings read alike, the source gives them in different places.

Experiments:
Enterobacter aerogenes = assay: Pulp substrate method, percent kill of E. aerogenes (Table 2); format: cell-based; settings: for killing at 1 ppm / killing at 2 ppm / killing at 4 ppm / killing at 8 ppm / killing at 10 ppm / killing at 15 ppm / killing at 20 ppm / killing at 25 ppm: Klebsiella aerogenes, pulp substrate, read-out: % Kill of E. aerugenes; for bactericidal activity (in words): at both neutral and alkaline pH, conclusion from Table 2 (E. aerogenes and P. aeruginosa)
Experimental: Compounds 1 and 2 were tested by the pulp substrate method described in detail in U.S. Pat. No. 2,881,070, column 5, line 12--column 6, line 53. The disclosure of U.S. Pat. No. 2,881,070 is specifically incorporated here by reference. […] The tests utilized Enterobacter aerogenes and Pseudomonas aeruginosa in pulp substrates that had been buffered at pH 7.0 and 8.0.

FUNGI = assay: Long term control of fungal growth on a paint film, ASTM D3456 (Table 8); settings: latex paint on Southern yellow pine, 5 years and 5 months
Experimental: (§1) The effectiveness of halogenated 4'-methoxyacetophenones were evaluated for long term control of fungal and algal growth on a paint film following ASTM Procedure #D3456 (ASTM, 1916 Race St., Philadelphia, Pa. 19103). The test compared the effectiveness of compound 2, 2,2,3'-tribromo-4'-methoxyacetophenone, in latex paint with the commercially available biocides such as Nopcocide-96, and Troysan Polyphase over a period of 5 years and 5 months. The test paint was brush-applied (2 coats) over Southern yellow pine panels. A minimum of 24 hours was allowed between coats. The panels were rated based on the ASTM Procedure #D3274: […]

ALGAE = assay: Long term control of algal growth on a paint film, ASTM D3456 (Table 8); settings: latex paint on Southern yellow pine, 5 years and 5 months
Experimental: as §1

Structure (SMILES)	killing at 1 ppm (Enterobacter aerogenes; pH 7.0)	killing at 1 ppm (Enterobacter aerogenes; pH 8.0)	killing at 2 ppm (Enterobacter aerogenes; pH 7.0)	killing at 2 ppm (Enterobacter aerogenes; pH 8.0)	killing at 4 ppm (Enterobacter aerogenes; pH 7.0)	killing at 4 ppm (Enterobacter aerogenes; pH 8.0)	killing at 8 ppm (Enterobacter aerogenes; pH 7.0)	killing at 8 ppm (Enterobacter aerogenes; pH 8.0)	killing at 10 ppm (Enterobacter aerogenes; pH 7.0)	killing at 10 ppm (Enterobacter aerogenes; pH 8.0)	killing at 15 ppm (Enterobacter aerogenes; pH 7.0)	killing at 15 ppm (Enterobacter aerogenes; pH 8.0)	killing at 20 ppm (Enterobacter aerogenes; pH 7.0)	killing at 20 ppm (Enterobacter aerogenes; pH 8.0)	killing at 25 ppm (Enterobacter aerogenes; pH 7.0)	killing at 25 ppm (Enterobacter aerogenes; pH 8.0)	bactericidal activity (in words) (Enterobacter aerogenes)	also measured
COc1ccc(C(=O)CBr)cc1Br [Compound 1, 2,3'-dibromo-4'-methoxyacetophenone]	31%	73%	25%	81%	38%	93%	0%	97%	10%	92%	18%	99.8%	96%	100%	99%	97.8%	good bactericides	–
COc1ccc(C(=O)C(Br)Br)cc1Br [Compound 2, 2,2,3'-tribromo-4'-methoxyacetophenone]	12%	9%	22%	43%	41%	83%	35%	91%	39%	89%	52%	96%	45%	98%	51%	99%	good bactericides	FUNGI rating in paint film preservation (FUNGI; 0.25%): 5.0; FUNGI rating in paint film preservation (FUNGI; 0.5%): 5.0; ALGAE rating in paint film preservation (ALGAE; 0.25%): 6.0; ALGAE rating in paint film preservation (ALGAE; 0.5%): 5.0
